Values joined by “and” are separate entries in the source; they are usually repeats but may differ in a detail not shown here. Equal entries are not always repeated. “Also recorded” adds a separate entry of the source. Where two headings read alike, the source gives them in different places.
Tests used:
[1] = Locomotor activity observation in carrageenin-treated rats; type: in vivo, female Wister rats; settings: oral, carrageenin-injected rats
Description: (§1) To female Wister rats weighing 130-150 g nothing was fed for 19 hours. Then, the rats were orally administered the test compound. Sixty minutes later, the pad of a hind paw of the rat was injected with 0.1 ml of 1% carrageenin solution. After edema was formed on the paw, paw volume and body temperature of the rat were measured, and movement of the rat was observed. As a result, both 3-amino-5-chloroindazole and Compound (46) show a strong inhibition to the edema, that is, 65% and 59%, respectively,after 3 hours from the injection.

[2] = tested on: carrageenin edema on hind paw; experiment: Carrageenin edema inhibition, comparison with 3-amino-5-chloroindazole; type: in vivo, female Wister rats; settings: oral; for inhibition to the (carrageenin) edema: after 3 hours from the injection of 1% carrageenin
Description: as §1

[3] = Body temperature / side effects in carrageenin-treated rats; type: in vivo, female Wister rats
Description: as §1

[4] = Superoxide capture by ESR and UV spectra (potassium superoxide / dicyclohexyl-18-crown-6 in acetonitrile); type: biochemical; settings: for catch of superoxide / one electron acceptance: ESR and UV
Description: As described in Yoshihiko Oyagi, "Superoxide and Medical Science", pp. 120-144, published by Kyoritsu Shuppan, a superoxide is considered to be one of the factors which cause the inflammation.
According to the description on Transactions of the Faraday Society, 59, 2016-2026 (1963), the UV spectrum of a phenoxy radical is observed at 380-430 nm. When the UV spectrum of a mixture of the 3-amino-5-hydroxyindazole and dicyclohexyl-18-crown-6 is measured in acetonitrile, λmax is observed at 306 nm. If potassium superoxide is added to the mixture, λmax is observed at 403 nm and 426 nm. On the other hand, no absorptions are observed at 350-450 nm when the UV spectra of potassium superoxide and 3-amino-5-hydroxyindazole are measured respectively in the presence of both dicyclohexyl-18-crown-6 and acetonitrile.

Serotonin inducing edema = experiment: Anti-edema test, serotonin inducing edema (Table 2); type: in vivo, rat; settings: after 3 hours
Description: (§2) […] A. Winter et al., NonSteroidal Anti-inflammatory Drugs. As an edema inducing substance, bradykinin, histamine and serotonin were employed. […] Bradykinin inducing edema inhibition and histamine inducing edema inhibition were measured after 30 minutes of the administration, and serotonin inducing edema inhibition was measured after 3 hours of the administration.

Histamine inducing edema = experiment: Anti-edema test, histamine inducing edema (Table 2); type: in vivo, rat; settings: after 30 minutes
Description: as §2

acetic acid-writing = experiment: Analgesic activity, acetic acid-writing test (Table 3); type: in vivo, animal (rat); standard mouse acetic acid-writing test
[5] = tested on: Carrageenin edema in rat's paw; experiment: Carrageenin Edema Test in Rat's Paw (anti-inflammatory activity, Table 1); type: in vivo; settings: 100 mg/kg oral, hydrochloride, rat
Description: An anti-inflammatory activity was measured by orally administering 100 mg/kg of a hydrochloride of the indazole derivative of this invention as set forth in Table 1 to an animal in accordance with the standard method of Carrageenin Edema Test in Rat's Paw described in C. A. Winter et al., Proc. Soc. Exp. Biol. Med., 111, 544 (1962).

[6] = tested on: Bradykinin inducing edema; experiment: Anti-edema test, bradykinin inducing edema (Table 2); type: in vivo, rat; settings: after 30 minutes
Description: as §2

in vivo = settings: mouse, ip, intraperitoneal, hydrochloride, male ddy mice
gastric ulcer = type: in vivo, Male donryu rats
Description: The test compound was suspended in 1% HCO-60 (trade name for polyoxyethylene hydrogenated castor oil; a product of Nikko Chemical Co., Ltd., Japan) at the concentration of 10 mg/ml. Male donryu rats weighing 150-160 g were orally administered 100 mg/kg of the test compound. The occurrence of gastric ulcer was examined 24 hours after the administration.
It is well known that the single use of acidic non-steroidal anti-inflammatory drugs causes a side effect in digestive tract ulcers such as gastric ulcer. The inventors found, however, that the side effect could be suppressed if the acidic non-steroidal anti-inflammatory drugs were used in combination with the indazole derivatives or pharmaceutically acceptable salts thereof of this invention. For example, gastric ulcer was caused by a single administration of 10 mg/kg of indomethacin in an ulcer index of 10.2 mm, and in an occurrence frequency of 6/6 (Ulcer generation animal number/Total animal number).

[7] = potassium superoxide, dicyclohexyl-18-crown-6, acetonitrile
[8] = 100 mg/kg Compound (126) together with 10 mg/kg indomethacin

## Nc1n[nH]c2ccc(Cl)cc12 [3-amino-5-chloroindazole, reference compound]
[1]
  depression of locomotor activity: remarkable depression of locomotor activity
[2]
  inhibition to the (carrageenin) edema: 65%
[3]; oral, carrageenin-injected rats
  decrease of body temperature: 3-4 °C

## Nc1n[nH]c2ccc(O)cc12 [3-amino-5-hydroxyindazole, 3-Amino-5-hydroxyindazole]
[4]; [7]
  ESR signals on addition to superoxide mixture (phenoxy radical): six superfine signals are observed
  catch of superoxide / one electron acceptance: a phenoxy radical is produced
[4]; with potassium superoxide and dicyclohexyl-18-crown-6 in acetonitrile
  UV λmax after adding potassium superoxide (phenoxy radical): 403 nm and 426 nm

## CCN(CC)CCCNc1n[nH]c2ccc(Cl)cc12 [(46), 3-(3-Diethylaminopropylamino)-5-chloroindazole]
Serotonin inducing edema; 100 mg/kg oral
  Serotonin inducing edema Inhibition: 73.4%
Histamine inducing edema; 100 mg/kg oral
  Histamine inducing edema Inhibition: 31.0%
Acetic acid-writing; 100 mg/kg oral
  Inhibition (acetic acid-writing, analgesic activity): 52%
[2]
  Carrageenin edema inhibition activity relative to 3-amino-5-chloroindazole: the same Carrageenin edema inhibition activity as 3-amino-5-chloroindazole
  inhibition to the (carrageenin) edema: 59%
[5]
  inhibition in vivo at 100 mg/kg: 59%
[6]; 100 mg/kg oral
  Bradykinin inducing edema Inhibition: 14.7%
[3]; relative to 3-amino-5-chloroindazole
  side effects (decrease of body temperature, depression of locomotor activity), words: can relieve the side effects of 3-amino-5-chloroindazole
In vivo
  LD50: 211 mg/kg

## CCN(CC)CCCn1nc(NCCCN2CCCCC2)c2cc(O)ccc21 [(126), 1-(3-Diethylaminopropyl)-3-(3-piperidinopropylamino)-5-hydroxyindazole]
Gastric ulcer; [8]
  occurrence frequency of ulcer: the occurrence frequency was not changed
  ulcer index: 5.8 mm
Gastric ulcer; rat, in vivo
  occurrence of gastric ulcer: gastric ulcer did not occur
[5]
  inhibition in vivo at 100 mg/kg: 28%
In vivo
  LD50: 310 mg/kg

## c1ccc2c(NCCCN3CCOCC3)n[nH]c2c1 [(152), 3-(3-Morpholinopropylamino)indazole]
Serotonin inducing edema; 100 mg/kg oral
  Serotonin inducing edema Inhibition: 42.9%
Histamine inducing edema; 100 mg/kg oral
  Histamine inducing edema Inhibition: 20.7%
Acetic acid-writing; 100 mg/kg oral
  Inhibition (acetic acid-writing, analgesic activity): 57%
[5]
  inhibition in vivo at 100 mg/kg: 51%
[6]; 100 mg/kg oral
  Bradykinin inducing edema Inhibition: 37%

## CC1CCCC(C)N1CCCNc1nn(CCCN2CCOCC2)c2ccccc12 (stereo not drawn) [(156), 1-(3-Morpholinopropyl)-3-[3-(2,6-dimethylpiperidino)propylamino]indazole]
[5]
  inhibition in vivo at 100 mg/kg: 32%
In vivo
  LD50: 301 mg/kg

## ClC1CCN(CCCNc2nn(CCCN3CCOCC3)c3ccccc23)CC1 [(157), 1-(3-Morpholinopropyl)-3-[3-(4-chloropiperidino)propylamino]indazole]
[5]
  inhibition in vivo at 100 mg/kg: 29%
In vivo
  LD50: 251 mg/kg

## OC1CCN(CCCNc2nn(CCCN3CCOCC3)c3ccccc23)CC1 [(158), 1-(3-Morpholinopropyl)-3-[3-(4-hydroxypiperidino)propylamino]indazole]
[5]
  inhibition in vivo at 100 mg/kg: 30%
In vivo
  LD50: 288 mg/kg

## CCCCN(CCCC)CCCn1nc(NCCCN2CCOCC2)c2ccccc21 [(159), 1-(3-Di-n-butylaminopropyl)-3-(3-morpholinopropylamino)indazole]
[5]
  inhibition in vivo at 100 mg/kg: 41%
In vivo
  LD50: 191 mg/kg

## c1ccc2c(c1)c(NCCCN1CCOCC1)nn2CCCN1CCCCC1 [(160), 1-(3-Piperidinopropyl)-3-(3-morpholinopropylamino)indazole]
[5]
  inhibition in vivo at 100 mg/kg: 39%
In vivo
  LD50: 244 mg/kg

## Nc1n[nH]c2cccc(O)c12 [(161), 3-Amino-4-hydroxyindazole]
[5]
  inhibition in vivo at 100 mg/kg: 41%
In vivo
  LD50: 211 mg/kg

## Nc1n[nH]c2ccc(O)cc12 [(162), 3-Amino-5-hydroxyindazole]
[4]; [7]
  catch of superoxide / one electron acceptance: can catch the superoxide; also recorded: accepts one electron from the superoxide
[5]
  inhibition in vivo at 100 mg/kg: 45%
In vivo
  LD50: 243 mg/kg

## Nc1n[nH]c2cc(O)ccc12 [(163), 3-Amino-6-hydroxyindazole]
[5]
  inhibition in vivo at 100 mg/kg: 43%
In vivo
  LD50: 252 mg/kg

## Nc1n[nH]c2c(O)cccc12 [(164), 3-Amino-7-hydroxyindazole]
[5]
  inhibition in vivo at 100 mg/kg: 42%
In vivo
  LD50: 231 mg/kg

## Nc1n[nH]c2ccc(I)cc12 [(165), 3-Amino-5-iodoindazole]
[5]
  inhibition in vivo at 100 mg/kg: 55%
In vivo
  LD50: 242 mg/kg

## Nc1n[nH]c2c(I)cccc12 [(166), 3-Amino-7-iodoindazole]
[5]
  inhibition in vivo at 100 mg/kg: 50%
In vivo
  LD50: 198 mg/kg

## Nc1cc(N)c2[nH]nc(N)c2c1 [(167), 3,5,7-Triaminoindazole]
[5]
  inhibition in vivo at 100 mg/kg: 85%
In vivo
  LD50: 171 mg/kg

## COc1ccc2c(c1)c(CC(=O)O)c(C)n2C(=O)c1ccc(Cl)cc1 [Compound C-4, Indomethacin]
Serotonin inducing edema; Dose: 10 mg/kg, oral
  Serotonin inducing edema Inhibition: 21.4%
Histamine inducing edema; Dose: 10 mg/kg, oral
  Histamine inducing edema Inhibition: 0%
Acetic acid-writing; Dose: 20 mg/kg, oral
  Inhibition (acetic acid-writing, analgesic activity): 50%
[6]; Dose: 10 mg/kg, oral
  Bradykinin inducing edema Inhibition: 0.4%

## CCCCC1C(=O)N(c2ccccc2)N(c2ccccc2)C1=O [Compound C-5, 3,5-dioxo-1,2-diphenyl-4-n-butylpyrazolidine]
Serotonin inducing edema; 100 mg/kg oral
  Serotonin inducing edema Inhibition: 2.8%
Histamine inducing edema; 100 mg/kg oral
  Histamine inducing edema Inhibition: 0%
Acetic acid-writing; 100 mg/kg oral
  Inhibition (acetic acid-writing, analgesic activity): 9%
[6]; 100 mg/kg oral
  Bradykinin inducing edema Inhibition: 2.9%

## CC(C(=O)O)c1cccc(C(=O)c2ccccc2)c1 (stereo not drawn) [Compound C-6, 3-benzoylhydratropic acid]
Serotonin inducing edema; Dose: 10 mg/kg, oral
  Serotonin inducing edema Inhibition: 5.2%
Histamine inducing edema; Dose: 10 mg/kg, oral
  Histamine inducing edema Inhibition: 2.9%
[6]; Dose: 10 mg/kg, oral
  Bradykinin inducing edema Inhibition: 1.6%

## COc1ccc2c(c1)c(CC(=O)O)c(C)n2C(=O)c1ccc(Cl)cc1 [indomethacin, 1-(p-chlorobenzoyl)-5-methoxy-2-methyl-indole-3-acetic acid, reference compound]
Gastric ulcer; rat, in vivo, 10 mg/kg
  occurrence frequency (Ulcer generation animal number/Total animal number): 6/6
  ulcer index: 10.2 mm

Reference: US4751302A, “Indazole derivatives” (priority 1982, dated 1988)
